Reference: PubChem BioAssay (NCI)
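Protocol summary: plate cells (96-well), add compound at 5 concentrations, incubate 48 h, interpolate endpoints linearly. TGI: total growth inhibition.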

What was measured:
Assay in all cases: NCI anticancer screen, dose series, 48 h
OVCAR-3 ovarian = tested on: OVCAR-3 ovarian
HT29 colon = tested on: HT29 colon
U251 CNS = tested on: U251 CNS
MCF7 breast = tested on: MCF7 breast
HCC-2998 colon = tested on: HCC-2998 colon
CAKI-1 renal = tested on: CAKI-1 renal
786-0 renal = tested on: 786-0 renal
SF-539 CNS = tested on: SF-539 CNS
A549 NSCLC = tested on: A549 NSCLC
SNB-75 CNS = tested on: SNB-75 CNS

| Compound | TGI (OVCAR-3 ovarian) [µM] | TGI (HT29 colon) [µM] | TGI (U251 CNS) [µM] | TGI (MCF7 breast) [µM] | TGI (HCC-2998 colon) [µM] | TGI (CAKI-1 renal) [µM] | TGI (786-0 renal) [µM] | TGI (SF-539 CNS) [µM] | TGI (A549 NSCLC) [µM] | TGI (SNB-75 CNS) [µM] |
| --- | --- | --- | --- | --- | --- | --- | --- | --- | --- | --- |
| CCn1c2ccc(O)c(C(=O)OC)c2c2cc3ccccc3c(O)c21 | 47.3 | 56.2 | 69.2 | > 100 | 38.3 | 33.6 | 30.7 | 49.2 | 83 |  |
| N#CC1(c2ccccc2)CCN(C2(c3ccccc3)CCCCC2)CC1 | > 100 | > 100 | > 100 | > 100 | > 100 | > 100 | > 100 |  | > 100 | > 100 |
| O=c1[nH]c2cc3cccnc3c(Cl)c2nc1CBr | 35.5 | 35.9 | 32.4 | 29.2 |  | 31.9 | 25.2 | 26.4 | 38.8 |  |
| O=C1NC2CCCCC2N=C1/C(C(=O)c1ccccc1)=C(\O)c1ccccc1 (stereo not given) | > 100 | > 100 | > 100 | > 100 | > 100 | > 100 | > 100 | > 100 | > 100 |  |
| O=C1c2ccccc2-c2nc(-c3ccccc3)cc3c2c1nc1ccccc13 | 2.43 | 25.9 | 39.6 | 21.9 | 26.7 | 74.9 | > 100 |  | 52.9 |  |
| O=c1[nH]cnc2sc(=S)c3c(c12)CCC3 | 53.2 | > 100 | > 100 | > 100 |  | 49.4 | 33.3 | > 100 | > 100 | > 100 |
| O=C1CCC2(O)C3Cc4ccc(Oc5nnnn5-c5ccccc5)c5c4C2(CCN3CC2CC2)C1O5 (stereo not given) | > 100 | 68.8 | > 100 | > 100 |  | > 100 | 41.2 |  | > 100 | > 100 |
| C/C=C/[C@H]1O[C@@](O)([C@@H](C)[C@H](O)[C@H](C)[C@H]2OC(=O)/C(OC)=C/C(C)=C/[C@@H](C)[C@@H](O)[C@@H](CC)[C@@H](O)[C@H](C)C/C(C)=C/C=C/[C@@H]2OC)C[C@H](OC2CC(O)C(OC(N)=O)C(C)O2)[C@@H]1C (stereo not given in full) | 17.2 | 1.59 | 17.4 | 16.9 | 18.6 | 14.4 | 15.7 |  | 17.7 | 21.9 |
| Clc1nc(Nc2nc3ccccc3[nH]2)nc(Cl)c1Cc1ccccc1 |  | > 100 | > 100 |  |  | > 100 | > 100 | > 100 | > 100 | > 100 |
| CCCCc1ccc(-n2sc3ncccc3c2=O)cc1 | 42.5 | 33.1 | 42.7 | 72.2 | 33.7 |  | 25.2 | 41 | 99.4 | 50.3 |
| Cc1ccc(SC[C@@]2(C(F)F)NC(=O)NC2=O)cc1 | > 100 | > 100 | > 100 |  | > 100 | > 100 | > 100 |  | > 100 | > 100 |
| C=CCC1(CC)C(=O)NC(=O)NC1=O | > 100 |  | > 100 |  | > 100 |  | > 100 | > 100 | > 100 | > 100 |
